Experimental data reported in patent US11344527B2, “Methods and compositions for treating cancer” (Sutter West Bay Hospitals, priority 2007, dated 2022).
Read-outs that look alike come from different tables or passages of the source.

Tests used:
[1] = test system: U87 cells; test: MTT cell proliferation assay, U87 GBM cells; format: cell-based, human; conditions: Homo sapiens, U-87 MG, 168 h, seven day treatment, 95% confidence limits, read-out: IC50 antiproliferative, U87
Experimental: (§1) The human GBM cell lines used were SF126, U87 and U251. Cell lines were maintained at 37° C. and 5% CO2.
(§2) Treatment groups were divided into 1) no treatment (control), 2) Δ^9-THC alone, 3) CBD alone, 4) Δ^9-THC and CBD combined. Positive and negative aspects of constituent interaction were determined in this 2×2 design using 2-way analysis of variance as described by (Slinker, 1998). […] Significant differences were also determined using ANOVA where suitable. […] P values <0.05 defined statistical significance.

[2] = test system: Id-1; test: Id-1 protein expression by quantitative Western analysis, MDA-MB231; format: cell-based, human; conditions: MDA-MB231 cells, 1.5 μM, two days, FIG. 1E
Text: Proteins were separated by SDS/PAGE, blotted on Immobilon membrane, and probed with anti-Id-1 and the appropriate secondary antibody. Band intensity values were obtained directly from the blot using AlphaeaseFC software (San Leandro, Calif.) or from film using Image-J (NIH, MD). As a normalization control for loading, blots were stripped and re-probed with mouse alpha-tubulin (Abeam, Cambridge, Mass.).
The ability of CBD to regulate the expression of key genes that control breast cancer cell aggressiveness and invasiveness was determined A potential candidate protein that could mediate the effects of CBD on both phenotypes was the helix-loop-helix protein Id-1. […] The inhibitory effect of CBD on Id-1 expression occurred at concentrations as low as 100 nM. […] The CBD concentrations effective at inhibiting Id-1 expression correlated with those used to inhibit the proliferative and invasive phenotype of MDA-MB231 cells. Furthermore, the time period needed to observe the down-regulation of Id-1 protein in the presence of CBD correlated with the inhibitory effects of CBD on the aggressiveness and invasiveness of MDA-MB231 cells (FIG. 1, panel D).
In order to determine the SAR between cannabinoids and the inhibition of Id-1, MDA-MB231 cells were treated for two days with multiple cannabinoid compounds and Id-1 protein levels were assessed.

[3] = test system: MDA-MB436 cells; test: MTT cell proliferation assay, MDA-MB436; conditions: Homo sapiens, MDA-MB-436, 72 h, read-out: IC50 antiproliferative, MDA-MB436
[4] = test system: ERK, JNK, and p38 MAPK; test: MAPK activity (pERK, ERK, JNK, p38) by Western analysis, U251; format: cell-based, human
Experimental: Cells cultured and treated in 6-well dishes were washed twice with cold PBS. Lysis buffer was added and cells lysed by freezing for 10 min at −70° C. and then thawing. Cell lysate was collected and the concentration was determined using Bradford reagent. Equal amounts of protein were heated to 90° C. in Laemmli sample buffer with β-mercaptoethanol, and loaded onto a precast SDS-PAGE gel (Bio-Rad Laboratories, Hercules, Calif.). Protein was transferred to an Immobilon membrane (Millipore, Billerica, Mass.) overnight at 2-4° C. Blots were then blocked with 5% nonfat dry milk in TBS+Tween for 1 h. Primary antibody from Millipore (rabbit anti-phospho-JNK, rabbit anti-phospho-p38, rabbit anti-phospho-ERK1/2 and rabbit anti-ERK1/2, 1 mcg/mL) in blocking buffer was then added for 1 h. The blots were then rinsed three times 10 min with TBS+Tween. Secondary antibody (Donkey Anti-Rabbit IgG, Jackson Immunoresearch, West Grove, Pa.) was then added. Blots were incubated for 45 min and then washed 4 times for 15 min each. The blots were developed with SuperSignal Femto (Pierce, Rockford, Ill.), and imaged on either a Fluorchem 8900 (Alpha Innotech, San Leandro, Calif.) or ECL Hyperfilm (Amersham-Pharmacia, Piscataway, N.J.). Band intensity values were obtained (after background subtraction) directly from the […] using AlphaeaseFC software (San Leandro, Calif.) or from film using Image-J (NIH, MD). As a normalization control for loading, blots were stripped and re-probed with mouse alpha-tubulin (Abcam, Cambridge, Mass.) and goat anti-mouse IgG (Jackson Immunoresearch) for the primary and secondary antibodies, respectively.
The regulation of ERK, JNK, and p38 MAPK activity plays a role in controlling cell growth and apoptosis. U251 cells were used to determine whether modulation of ERK, JNK, and p38 MAPK activity occurred.

[5] = test system: U251 cells; test: MTT cell proliferation assay, U251 GBM cells; format: cell-based, human; conditions: Homo sapiens, U-251, 168 h, seven day treatment, 95% confidence limits, read-out: IC50 antiproliferative, U251
Experimental: as §1, §2

[6] = test system: SF126 cells; test: MTT cell proliferation assay, SF126 GBM cells; format: cell-based, human; conditions: Homo sapiens, read-out: IC50 antiproliferative, SF126
Experimental: as §1, §2

[7] = test system: caspase 3, 7, 9 and PARP; test: Caspase and PARP Western analysis, U251; format: cell-based, human; conditions: U251, three days; Δ9-THC 1.7 μM and/or CBD 0.4 μM; FIG. 9
[8] = test system: MDA-MB231 cells; test: Boyden chamber invasion assay, MDA-MB231; format: cell-based, human; conditions: 0.1, 1.0 or 1.5 μM; FIG. 1A
Experimental: Invasion is an important step towards breast cancer cell metastasis. Therefore, the effects of several cannabinoids were tested on their ability to modulate the migratory and invasiveness activity of the most aggressive human breast cancer cell line, MDA-MB231, in a reconstituted basement membrane in a Boyden chamber.

[9] = test system: MDA-MB231 cells; test: MTT cell proliferation assay, MDA-MB231; conditions: Homo sapiens, MDA-MB-231, 72 h, read-out: IC50 antiproliferative, MDA-MB231
[10] = test system: U251 cells; test: Boyden chamber invasion assay, U251; format: cell-based, human
[11] = test system: U251 cells; test: Cell cycle analysis (PI staining, FACS), U251; format: cell-based, human; conditions: Δ9-THC 1.7 μM and/or CBD 0.4 μM, FIG. 8
Experimental: U251 cells were grown in Petri dishes (100 mm×15 mm) and received drug treatments for 2 days. On the third day, the cells were harvested and centrifuged at 1200 rpm for 5 minutes. The pellet was washed 1× with PBS+1% BSA, and centrifuged again. The pellet was resuspended in 0.5 ml of 2% paraformaldehyde (diluted with PBS) and left to fix overnight at room temperature. The next day the cells were pelleted and resuspended in 0.5 ml 0.3% Triton in PBS and incubated for 5 minutes at room temperature. The cells were then washed 2 times with PBS+1% BSA. The cells were finally suspended in PBS (0.1% BSA) with 10 ug/ml Propidium Iodide and 100 μg/ml RNAse. The cells were incubated for 30 minutes at room temperature before being stored at 4 C. Cell cycle was measured using a FACS Calibur using Cell Quest Pro and Modfit software.

[12] = test system: U251 cells; test: Apoptosis (annexin staining, FACS), U251; format: cell-based, human; conditions: U251, three days
Experimental: Cells were grown in 6 well culture dishes and were treated with the appropriate compounds every 24 hours for three days. The cells were trypsinized, washed with PBS, and processed for labeling with fluorescein-tagged UTP nucleotide and PI by use of an Apo-Direct apoptosis kit obtained from Phoenix Flow Systems (San Diego, Calif.) and was used according to the manufacturer's protocol. The labeled cells were analyzed by flow cytometry. Cell Flow Cytometry in combination with PI and annexin staining was used to quantify the percentage of cells undergoing apoptosis in control and treatment groups. % control was calculated as annexin positive staining in treated cells/control cells×100. PI staining was used to distinguish necrotic cells from those undergoing apoptosis.

## CCCCCc1cc(O)c2c(c1)OC(C)(C)C1CCC(C)=CC21 (stereo not drawn) [Δ^9-THC, tetrahydrocannabinol]
[1]
  IC50: 1600 nM
[2]
  inhibition of Id-1 protein (structure activity relationship): No inhibition
[2]; listed as THC
  inhibition of Id-1 protein (structure activity relationship): no activity
[3]
  IC50: 2500 nM
[4]; U251, three days, 2.5 μM Δ9-THC, 2.0 μM CBD, or 1.7 μM/0.4 μM combination, FIG. 6D
  p-ERK, higher concentrations alone compared with the combination: no effect
[4]; U251, Δ9-THC 1.7 μM and/or CBD 0.4 μM, two days, FIG. 4
  p-ERK: no changes
[5]
  IC50: 1100 nM
[6]; SF-126, 72 h, three day treatment, 95% confidence limits (Table 4)
  IC50: 2500 nM
[6]; SF-126, 168 h, seven day treatment, 95% confidence limits
  IC50: 900 nM
[7]
  caspase 3, 7, 9 and PARP activation: Small increases in the activity of caspase 7, caspase 9 and PARP but not caspase 3
[8]
  invasion of MDA-MB231 cells: significantly reduced
[9]
  IC50: 1200 nM
[10]; Boyden chamber, FIG. 10
  invasiveness of U251 cells: effectively inhibited
[10]; Homo sapiens, U-251, limits 49-150, read-out: predicted IC50 to inhibit U251 cell invasiveness
  IC50: 85 nM
[11]
  cell cycle distribution: increases in the population of cells in G1 and G2/M phase and decreases in cells in S phase
[12]; 0.5 μM SR144528, combination 1.7/0.4 μM, 2.5 μM Δ9-THC or 2.0 μM CBD, FIG. 6
  apoptosis in the presence of the CB2 antagonist SR144528: partially blocked
[12]; 20 μM α-tocopherol, combination 1.7/0.4 μM, 2.5 μM Δ9-THC or 2.0 μM CBD, FIG. 6
  apoptosis in the presence of α-tocopherol: completely blocked
[12]; Δ9-THC 1.7 μM and/or CBD 0.4 μM, FIG. 5
  apoptosis (annexin staining): did not produce significant changes
